Data: the Kinase Knowledgebase extract (Sharma et al. 2016)

Legend:
MAPK14 (human) [1] = target: MAPK14 (human) (UniProt Q16539); experiment: Inhibition of MAPK14 Kinase Activity by PHAS-I Assay; conditions: for inhibition: concentration not given here
MAPK14 (human) [2] = target: MAPK14 (human) (UniProt Q16539); experiment: Inhibition of LPS Stimulated TNF Production by U937 Cells; conditions: for inhibition: concentration not given here

Sequence of MAPK14 (human) (Q16539 whole entry, looked up): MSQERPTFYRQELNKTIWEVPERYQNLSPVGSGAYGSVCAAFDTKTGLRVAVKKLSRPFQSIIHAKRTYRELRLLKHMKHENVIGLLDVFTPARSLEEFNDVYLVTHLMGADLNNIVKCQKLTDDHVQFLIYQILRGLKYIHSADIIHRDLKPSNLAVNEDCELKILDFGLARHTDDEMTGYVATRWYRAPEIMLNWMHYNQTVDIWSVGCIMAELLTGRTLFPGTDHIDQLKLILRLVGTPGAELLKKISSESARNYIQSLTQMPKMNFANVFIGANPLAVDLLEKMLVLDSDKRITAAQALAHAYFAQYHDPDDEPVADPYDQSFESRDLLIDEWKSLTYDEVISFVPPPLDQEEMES

| SMILES | inhibition (MAPK14 (human) [1]) | inhibition (MAPK14 (human) [2]) | IC50 (MAPK14 (human) [2]) | IC50 (MAPK14 (human) [1]) |
| --- | --- | --- | --- | --- |
| O=C(NCCc1[nH]nc(-c2ccc(F)cc2)c1-c1ccncc1)N[C@@H]1C[C@@H]1c1ccccc1 | 81% | 25% |  |  |
| CCCCCCCCOc1cccc(NC(=O)Cn2nc(-c3ccc(F)cc3)c(-c3ccncc3)c2C)c1 | 86% |  | > 10000 nM |  |
| O=C(NCCc1[nH]nc(-c2ccc(F)cc2)c1-c1ccncc1)c1ccccc1C(F)(F)F | 54% | 27% |  |  |
| CCC(C(=O)NCc1[nH]nc(-c2ccc(F)cc2)c1-c1ccncc1)c1ccccc1 (stereo unspecified) | 94% | 76% |  |  |
| O=C(NCCCc1[nH]nc(-c2ccc(F)cc2)c1-c1ccncc1)NCCc1cccnc1 |  | 18% |  | 71 nM |
| Cc1ccc(S(=O)(=O)N[C@H](CCc2ccccc2)C(=O)NCc2[nH]nc(-c3ccc(F)cc3)c2-c2ccncc2)cc1 | 94% |  | 10000 nM |  |
| COc1cc(OC)c(NC(=O)NCCc2[nH]nc(-c3ccc(F)cc3)c2-c2ccncc2)cc1Cl | 82% | 32% |  |  |
| CCOC(=O)[C@H](Cc1ccccc1)NC(=O)Cn1nc(-c2ccc(F)cc2)c(-c2ccncc2)c1C | 77% | 1% |  |  |
| C[C@@H](NC(=O)c1ccc(F)cc1)c1[nH]nc(-c2ccc(F)cc2)c1-c1ccncc1 |  | 24% |  | 660 nM |
| O=C(NCCc1[nH]nc(-c2ccc(F)cc2)c1-c1ccncc1)Nc1ccc(-c2ccccc2)cc1 | 35% | 26% |  |  |
| Cc1c(-c2ccncc2)c(-c2ccc(F)cc2)nn1CC(=O)Nc1ccccc1OC(F)(F)F | 91% |  | > 10000 nM |  |
| O=S(=O)(NCc1[nH]nc(-c2ccc(F)cc2)c1-c1ccncc1)C(F)(F)F |  |  | > 1000 nM | 2400 nM |
| COC(=O)C(=O)NCc1[nH]nc(-c2ccc(F)cc2)c1-c1ccncc1 | 89% | 79% |  |  |
| COc1ccc(C2OCCN2C(=O)Cn2nc(-c3ccc(F)cc3)c(-c3ccncc3)c2C)cc1OC (stereo unspecified) | 69% | 18% |  |  |
| CCS(=O)(=O)NCCc1[nH]nc(-c2ccc(F)cc2)c1-c1ccncc1 | 93% | 70% |  |  |
| CN(C)C(=O)NCc1[nH]nc(-c2ccc(F)cc2)c1-c1ccncc1 |  | 51% |  | 110 nM |
| O=C(NCCCc1[nH]nc(-c2ccc(F)cc2)c1-c1ccncc1)C1CCC1 | 66% |  | 990 nM |  |
| CCOC(=O)CNC(=O)NCCc1[nH]nc(-c2ccc(F)cc2)c1-c1ccncc1 | 74% |  | 1100 nM |  |
| CCCCOc1ccc(NC(=O)NCCc2[nH]nc(-c3ccc(F)cc3)c2-c2ccncc2)cc1 | 45% | 27% |  |  |
| COC(=O)C1CN1C(=O)Cn1nc(-c2ccc(F)cc2)c(-c2ccncc2)c1C (stereo unspecified) | 45% | 24% |  |  |
| O=C(NCCc1[nH]nc(-c2ccc(F)cc2)c1-c1ccncc1)N1CCCC1 | 76% | 37% |  |  |
| CC1(C)[C@H]2CC[C@@]1(CS(=O)(=O)NCCCc1[nH]nc(-c3ccc(F)cc3)c1-c1ccncc1)C(=O)C2 |  | 38% |  | < 100 nM |
| O=C(NCCc1[nH]nc(-c2ccc(F)cc2)c1-c1ccncc1)Nc1cc(Cl)cc(Cl)c1 | 44% | 21% |  |  |
| CCNC(=O)NCCc1[nH]nc(-c2ccc(F)cc2)c1-c1ccncc1 | 67% | 65% |  |  |
| CC(=O)Nc1ccc(S(=O)(=O)N[C@@H](C)c2[nH]nc(-c3ccc(F)cc3)c2-c2ccncc2)cc1 |  | 73% |  | 59 nM |

| SMILES | inhibition (MAPK14 (human) [1]) | inhibition (MAPK14 (human) [2]) | IC50 (MAPK14 (human) [2]) | IC50 (MAPK14 (human) [1]) |
| --- | --- | --- | --- | --- |
| COc1ccc(S(=O)(=O)NCCc2[nH]nc(-c3ccc(F)cc3)c2-c2ccncc2)cc1 | 61% | 23% |  |  |
| Cc1c(-c2ccncc2)c(-c2ccc(F)cc2)nn1CC(=O)NC(C)Cc1c[nH]c2ccccc12 (stereo unspecified) | 65% | 28% |  |  |
| O=C(NCCc1[nH]nc(-c2ccc(F)cc2)c1-c1ccncc1)N1CCOCC1 | 86% | 34% |  |  |
| C[C@H](NC(=O)c1cc(F)cc(F)c1)c1[nH]nc(-c2ccc(F)cc2)c1-c1ccncc1 |  | 45% |  | 62 nM |
| Cc1c(-c2ccncc2)c(-c2ccc(F)cc2)nn1CC(=O)N1CCCCC1CCN1CCCCC1 (stereo unspecified) | 26% | 13% |  |  |
| COc1ccc(CN(CCc2ccccc2)C(=O)Cn2nc(-c3ccc(F)cc3)c(-c3ccncc3)c2C)cc1 | 75% |  | > 10000 nM |  |
| CN(C(=O)NCc1[nH]nc(-c2ccc(F)cc2)c1-c1ccncc1)c1ccccc1 |  | 18% |  | 530 nM |
| C[C@H](NC(=O)Nc1ccccc1F)c1[nH]nc(-c2ccc(F)cc2)c1-c1ccncc1 |  | 38% |  | 6840 nM |
| C[C@H](NC(=O)NCCCc1[nH]nc(-c2ccc(F)cc2)c1-c1ccncc1)c1ccccc1 | 85% | 37% |  |  |
| O=C(NCCc1[nH]nc(-c2ccc(F)cc2)c1-c1ccncc1)c1ccc(F)c(F)c1F | 69% | 22% |  |  |
| CC(=O)OCC(=O)NCCCc1[nH]nc(-c2ccc(F)cc2)c1-c1ccncc1 | 74% |  | 680 nM |  |
| COc1ccc(CC(=O)NCCc2[nH]nc(-c3ccc(F)cc3)c2-c2ccncc2)cc1OC | 61% | 24% |  |  |
| CNC(=O)CC[C@H](NC(=O)c1ccc(I)cc1)c1[nH]nc(-c2ccc(F)cc2)c1-c1ccncc1 |  | 8% |  | 3280 nM |
| O=C(NCCc1[nH]nc(-c2ccc(F)cc2)c1-c1ccncc1)c1ccccn1 | 52% | 34% |  |  |
| CC(=O)Oc1cccc(C(=O)NCc2[nH]nc(-c3ccc(F)cc3)c2-c2ccncc2)c1 | 98% | 52% |  |  |
| N/C(=C(\N)S(=O)(=O)NCc1[nH]nc(-c2ccc(F)cc2)c1-c1ccncc1)c1ccccc1 | 89% |  | 2780 nM |  |
| C[C@@H](NS(=O)(=O)c1ccccc1C(=O)O)c1[nH]nc(-c2ccc(F)cc2)c1-c1ccncc1 |  | 59% |  | 580 nM |
| CCOC(=O)c1ccc(NC(=O)NCCc2[nH]nc(-c3ccc(F)cc3)c2-c2ccncc2)cc1 | 90% | 17% |  |  |
| CC(Oc1ccccc1)C(=O)NCCCc1[nH]nc(-c2ccc(F)cc2)c1-c1ccncc1 (stereo unspecified) | 83% | 60% |  |  |
| O=C(N[C@H](Cc1ccccc1)c1[nH]nc(-c2ccc(F)cc2)c1-c1ccncc1)c1ccccc1I |  | 34% |  | 540 nM |
| CCOC(=O)C(NC(=O)NCCc1[nH]nc(-c2ccc(F)cc2)c1-c1ccncc1)C(C)C (stereo unspecified) | 79% | 36% |  |  |
| O=C(NCCc1[nH]nc(-c2ccc(F)cc2)c1-c1ccncc1)Nc1ccccc1-c1ccccc1 | 63% | 35% |  |  |
| C[C@H](NS(=O)(=O)[C@]12CC[C@@H](CC1=O)C2(C)C)c1[nH]nc(-c2ccc(F)cc2)c1-c1ccncc1 |  | 39% |  | 830 nM |
| CC(C)S(=O)(=O)NCCc1[nH]nc(-c2ccc(F)cc2)c1-c1ccncc1 | 77% | 34% |  |  |
| C=CCN(C(=O)Cn1nc(-c2ccc(F)cc2)c(-c2ccncc2)c1C)C1CCCCC1 | 50% | 6% |  |  |

| SMILES | inhibition (MAPK14 (human) [1]) | inhibition (MAPK14 (human) [2]) | IC50 (MAPK14 (human) [2]) | IC50 (MAPK14 (human) [1]) |
| --- | --- | --- | --- | --- |
| COc1ccc2[nH]c3c(c2c1)CCN(C(=O)Cn1nc(-c2ccc(F)cc2)c(-c2ccncc2)c1C)C3 | 39% | 10% |  |  |
| O=C(NCCc1[nH]nc(-c2ccc(F)cc2)c1-c1ccncc1)Nc1ccc(Cl)c(Cl)c1 | 79% | 23% |  |  |
| O=C(NCc1[nH]nc(-c2ccc(F)cc2)c1-c1ccncc1)N1CCOCC1 |  |  | > 1000 nM | 560 nM |
| CC(=O)NCCc1[nH]nc(-c2ccc(F)cc2)c1-c1ccncc1 | 78% | 79% |  |  |
| Cc1c(-c2ccncc2)c(-c2ccc(F)cc2)nn1CC(=O)[C@H]1CCCN1C(=O)OCc1ccccc1 | 79% | 19% |  |  |
| O=C(NCc1[nH]nc(-c2ccc(F)cc2)c1-c1ccncc1)[C@@H]1CCCN1C(=O)C(F)(F)F | 96% | 52% |  |  |
| O=C(NCCc1[nH]nc(-c2ccc(F)cc2)c1-c1ccncc1)[C@@H]1CCCN1 | 89% |  | 760 nM |  |
| COc1ccc(OC)c(NC(=O)NCCc2[nH]nc(-c3ccc(F)cc3)c2-c2ccncc2)c1 | 76% |  | 880 nM |  |
| CC(C)(C)C(=O)NCCc1[nH]nc(-c2ccc(F)cc2)c1-c1ccncc1 | 69% | 66% |  |  |
| Cc1c(-c2ccncc2)c(-c2ccc(F)cc2)nn1CC(=O)Nc1ccc(CCC(=O)c2cccnc2)cc1 | 94% | 15% |  |  |
| O=S(=O)(NCCCc1[nH]nc(-c2ccc(F)cc2)c1-c1ccncc1)c1ccccc1 | 74% | 57% |  |  |
| CCOC(=O)C(C)NC(=O)NCCc1[nH]nc(-c2ccc(F)cc2)c1-c1ccncc1 (stereo unspecified) | 63% | 25% |  |  |
| CCC(=O)C(=O)CCCCCNC(=O)NCCc1[nH]nc(-c2ccc(F)cc2)c1-c1ccncc1 | 69% |  | > 1000 nM |  |
| Cc1c(-c2ccncc2)c(-c2ccc(F)cc2)nn1CC(=O)N(C)CCCC1c2ccccc2CCc2ccccc21 | 50% |  | > 10000 nM |  |
| Cc1ccc(S(=O)(=O)NCCc2[nH]nc(-c3ccc(F)cc3)c2-c2ccncc2)cc1 | 58% | 18% |  |  |
| O=C(NCCCc1[nH]nc(-c2ccc(F)cc2)c1-c1ccncc1)NCCN1CCOCC1 |  | 20% |  | 55 nM |
| Cc1c(-c2ccncc2)c(-c2ccc(F)cc2)nn1CC(=O)N[C@@H](C)C1CCCCC1 | 64% | 38% |  |  |
| N#Cc1ccc(C(=O)NCc2[nH]nc(-c3ccc(F)cc3)c2-c2ccncc2)cc1 | 53% | 40% |  |  |
| CCOC(=O)CCOC(=O)NCc1[nH]nc(-c2ccc(F)cc2)c1-c1ccncc1 | 54% | 5% |  |  |
| O=C(NCCc1[nH]nc(-c2ccc(F)cc2)c1-c1ccncc1)c1ccncc1 | 69% | 38% |  |  |
| CC(=O)O[C@@H](C)C(=O)NCCc1[nH]nc(-c2ccc(F)cc2)c1-c1ccncc1 | 57% | 73% |  |  |
| COC(=O)C(C)NC(=O)Cn1nc(-c2ccc(F)cc2)c(-c2ccncc2)c1C (stereo unspecified) | 44% | 1% |  |  |
| O=C(NCCc1[nH]nc(-c2ccc(F)cc2)c1-c1ccncc1)C1CCCC1 | 79% | 45% |  |  |
